Target: T1, FLAG-mTOR (Homo sapiens, UniProt P42345)
T1 construct: expressed in transfected cells; host or cells: HEK-293
Assay: Co-immunoprecipitation of FLAG-mTOR and endogenous FKBPs in HEK-293 cells
Assay type: cell-based
Conditions: overexpressed mTOR, 25 nM, 30 minutes prior to lysis
Protocol: Next mammalian cells were analyzed for a rapamycin-mediated interaction of mTOR and FKBPs. Co-Immunoprecipitation experiments were performed. In detail, the mammalian expression vector pcDNA-3, containing a FLAG-tagged mTOR cDNA sequence, was introduced into HEK-293 cells by standard Lipofectamine transfection. After 48 h, cells were washed twice with TBS and lysed in lysis buffer (40 mM Hepes, pH 7.5; 120 mM NaCl; 1 mM EDTA; 10 mM pyrophosphate; 10 mM glycerophosphate; 0.5 mM orthovanadate; 50 mM NaF; 0.3% (w/v) CHAPS / 1% (v/v) Triton-100; 1% (v/v) protease inhibitor mix) by shaking at 1000 rpm at 4°C for 20 minutes. After 20 minutes of centrifugation at 14.000 rpm and 4°C, the supernatant was collected, and total protein was determined by Bradford Assay. […] Beads were pelleted and washed 4 times with lysis buffer. Finally, beads were directly boiled after addition of an equal amount of SDS sample buffer for 5 minutes. Extracts were subjected to SDS-PAGE and immunoblotting.

SMILES: C=CC[C@@H]1/C=C(\C)C[C@H](C)C[C@H](OC)[C@H]2O[C@@](O)(C(=O)C(=O)N3CCCC[C@H]3C(=O)O[C@H](/C(C)=C/[C@@H]3CC[C@@H](O)[C@H](OC)C3)[C@H](C)[C@@H](O)CC1=O)[C@H](C)C[C@@H]2OC [Tacrolimus]
- interaction of mTOR with endogenous FKBP12, FKBP51 and FKBP52 (co-precipitation): No interaction was observed
